Measurements reported in patent US10975056B2 (GlaxoSmithKline Intellectual Property Development Limited, priority 2016, dated 2021).
Where a name gives a salt, the structure may show the parent alone.

Columns and labels:
[1] = test system: erythroid progenitor cells (EPCs); test: Fetal hemoglobin (HbF) ELISA in day 7 erythroid progenitor cells; type: cell-based, human; settings: Homo sapiens, Erythroid progenitor cell, HbF ELISA, day 7 EPCs, 5 days; read-out: EPC ELISA (pEC50 category) (converted);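 further: for fetal hemoglobin induction normalized to vehicle-treated cells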
Summary of the method: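 CD34+-derived EPCs, 1,000 cells/well, rhEPO 3 U/mL; Compound A 22-pt series, […]; 5 d, 37° C, 5% CO2. Freeze-thaw lysis, anti-HbF capture + HRP anti-HbF, TMB, OD450. Normalized to DMSO wells.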

DNMT1 = DNMT1 (Homo sapiens, UniProt P26358); test: DNMT1 biochemical activity, breaklight assay and/or SPA assay; settings: binned activity in either the breaklight or the SPA assay; for IC50: read-out: DNMT1 BioChemical (pIC50 category) (converted)
Sequence of DNMT1 (P26358 whole entry, looked up): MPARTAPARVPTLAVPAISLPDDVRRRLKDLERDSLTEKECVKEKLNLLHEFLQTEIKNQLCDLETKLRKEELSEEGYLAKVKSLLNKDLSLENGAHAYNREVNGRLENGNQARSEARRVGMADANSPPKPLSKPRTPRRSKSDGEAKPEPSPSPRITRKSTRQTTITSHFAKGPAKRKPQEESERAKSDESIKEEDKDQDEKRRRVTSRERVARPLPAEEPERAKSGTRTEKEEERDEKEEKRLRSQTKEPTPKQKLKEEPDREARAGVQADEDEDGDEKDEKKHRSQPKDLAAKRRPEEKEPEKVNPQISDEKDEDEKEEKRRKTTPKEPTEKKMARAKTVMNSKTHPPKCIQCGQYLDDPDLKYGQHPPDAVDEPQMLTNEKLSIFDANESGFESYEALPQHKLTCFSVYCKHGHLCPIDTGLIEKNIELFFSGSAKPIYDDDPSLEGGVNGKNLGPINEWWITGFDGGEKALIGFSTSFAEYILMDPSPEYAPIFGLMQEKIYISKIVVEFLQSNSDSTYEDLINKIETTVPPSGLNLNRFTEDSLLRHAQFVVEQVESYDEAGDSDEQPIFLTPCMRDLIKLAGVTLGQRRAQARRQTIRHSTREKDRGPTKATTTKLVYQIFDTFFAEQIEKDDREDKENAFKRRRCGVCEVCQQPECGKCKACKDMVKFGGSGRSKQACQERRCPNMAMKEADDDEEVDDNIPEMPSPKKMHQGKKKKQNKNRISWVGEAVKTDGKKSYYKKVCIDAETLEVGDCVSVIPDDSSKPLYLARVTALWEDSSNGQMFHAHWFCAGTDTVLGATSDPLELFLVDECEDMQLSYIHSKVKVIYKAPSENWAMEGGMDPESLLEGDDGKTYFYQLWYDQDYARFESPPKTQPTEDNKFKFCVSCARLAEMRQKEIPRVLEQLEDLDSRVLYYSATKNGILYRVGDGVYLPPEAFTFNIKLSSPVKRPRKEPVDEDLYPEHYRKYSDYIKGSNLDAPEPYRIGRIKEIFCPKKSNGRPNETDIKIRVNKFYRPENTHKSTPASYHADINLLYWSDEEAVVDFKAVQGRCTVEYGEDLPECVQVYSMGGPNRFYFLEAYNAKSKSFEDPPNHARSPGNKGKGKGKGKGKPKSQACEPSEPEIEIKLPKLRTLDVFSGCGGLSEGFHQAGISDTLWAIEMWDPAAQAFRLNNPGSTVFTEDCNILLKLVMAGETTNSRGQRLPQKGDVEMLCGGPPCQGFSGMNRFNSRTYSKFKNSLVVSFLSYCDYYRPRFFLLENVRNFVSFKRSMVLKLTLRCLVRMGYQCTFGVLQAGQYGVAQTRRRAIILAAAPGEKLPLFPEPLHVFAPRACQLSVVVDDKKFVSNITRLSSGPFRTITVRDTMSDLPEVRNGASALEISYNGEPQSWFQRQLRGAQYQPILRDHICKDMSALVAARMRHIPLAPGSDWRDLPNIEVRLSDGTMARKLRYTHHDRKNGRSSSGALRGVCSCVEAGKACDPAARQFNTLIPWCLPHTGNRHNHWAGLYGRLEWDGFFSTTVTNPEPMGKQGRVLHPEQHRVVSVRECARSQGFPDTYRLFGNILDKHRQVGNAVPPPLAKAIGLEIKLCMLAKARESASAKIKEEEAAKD

With `CCc1c(C#N)c(SCc2ccc(N(C)S(C)(=O)=O)cc2)nc(N(C)CCNCC(C)(C)C)c1C#N` [Example 458, N-(4-(((3,5-dicyano-4-ethyl-6-(methyl(2-(neopentylamino)ethyl)amino)pyridin-2-yl)thio)methyl)phenyl)-N-methylmethanesulfonamide] the EC50 [1] was < 316 nM and the “DNMT1 BioChemical (pIC50 category)” value (DNMT1) was “D (Category D: ≥6.5)”.

For `N#Cc1c(SC(C(N)=O)c2ccccc2)nc(N2CCC(NC(=O)CN)CC2)c(C#N)c1C1CC1` (centres unmarked) [Example 642, 2-amino-N-(1-(6-((2-amino-2-oxo-1-phenylethyl)thio)-3,5-dicyano-4-cyclopropylpyridin-2-yl)piperidin-4-yl)acetamide formate], the EC50 [1] was 1000 to 31600 nM and the “DNMT1 BioChemical (pIC50 category)” value (DNMT1) was “D (Category D: ≥6.5)”.

In the case of `CCc1c(C#N)c(S[C@@H](C(N)=O)c2ccccc2)nc(N2CC[C@H](OP(=O)(O)O)C2)c1C#N` [Example 418, (S)-1-(6-(((R-2-amino-2-oxo-1-phenylethyl)thio-3,5-dicyano-4-ethylpyridin-2-yl)pyrrolidin-3-yldihydrogen phosphate], the EC50 [1] is reported as > 31600 nM and the IC50 (DNMT1) is reported as 1000 to 31600 nM.

In the case of `CCc1c(C#N)c(SC(C(N)=O)c2ncccc2F)nc(N2CCC(N)CC2)c1C#N` (centres unmarked) [Example 583, 2-((6-(4-aminopiperidin-1-yl)-3,5-dicyano-4-ethylpyridin-2-yl)thio)-2-(3-fluoropyridin-2-yl)acetamide], the EC50 [1] is reported as < 316 nM and the “DNMT1 BioChemical (pIC50 category)” value (DNMT1) is reported as “D (Category D: ≥6.5)”.

`N#Cc1c(SC(C(N)=O)c2ccccc2)nc(N2CCC(O)(CN)CC2)c(C#N)c1C1CC1` (centres unmarked) [Example 23] was tested, and the EC50 [1] was 1000 to 31600 nM and the “DNMT1 BioChemical (pIC50 category)” value (DNMT1) was “D (Category D: ≥6.5)”.

With `CCc1c(C#N)c(SCc2ccc(CNC3CCNC3=O)cc2)nc(N2CCCN(C)CC2)c1C#N` (centres unmarked) [Example 385, 4-Ethyl-2-(4-methyl-1,4-diazepan-1-yl)-6-((4-(((2-oxopyrrolidin-3-yl)amino)methyl)benzyl)thio)pyridine-3,5-dicarbonitrile] the EC50 [1] was > 31600 nM and the IC50 (DNMT1) was 316 to 1000 nM.

`CCc1c(C#N)c(SCC(N)=O)nc(SC(C(N)=O)c2ccccc2)c1C#N` (centres unmarked) [Example 235, 2-((6-((2-Amino-2-oxoethyl)thio)-3,5-dicyano-4-ethylpyridin-2-yl)thio)-2-phenylacetamide] gave an EC50 [1] of 316 to 1000 nM and an IC50 (DNMT1) of 316 to 1000 nM.

`CCc1c(C#N)c(SC(C(N)=O)c2ccccc2)nc(N(C)C2CC(N)C2)c1C#N` (centres unmarked) [Example 498, 2-((6-((3-aminocyclobutyl)(methyl)amino)-3,5-dicyano-4-ethylpyridin-2-yl)thio)-2-phenylacetamide] was tested, and the EC50 [1] was 316 to 1000 nM and the “DNMT1 BioChemical (pIC50 category)” value (DNMT1) was “D (Category D: ≥6.5)”.

With `CCc1c(C#N)c(SCc2ccc(C(=O)O)cc2)nc(N2CCCN(C)CC2)c1C#N` [Example 73, 4-(((3,5-Dicyano-4-ethyl-6-(4-methyl-1,4-diazepan-1-yl)pyridin-2-yl)thio)methyl)benzoic acid] the EC50 [1] was > 31600 nM and the IC50 (DNMT1) was 316 to 1000 nM.

`CCc1c(C#N)c(SCc2ccc(N(C)S(C)(=O)=O)cc2)nc(N(C)CCNC)c1C#N` [Example 471, N-(4-(((3,5-dicyano-4-ethyl-6-(methyl(2-(methylamino)ethyl)amino)pyridin-2-yl)thio)methyl)phenyl)-N-methylmethanesulfonamide] was tested, and the EC50 [1] was < 316 nM and the “DNMT1 BioChemical (pIC50 category)” value (DNMT1) was “D (Category D: ≥6.5)”.

In the case of `CCCS(=O)(=O)N1CCN(c2nc(SC(C(N)=O)c3ccccc3)c(C#N)c(CC)c2C#N)CC1` (centres unmarked) [Example 158, 2-((3,5-Dicyano-4-ethyl-6-(4-(propylsulfonyl)piperazin-1-yl)pyridin-2-yl)thio)-2-phenylacetamide], the EC50 [1] is reported as < 316 nM and the IC50 (DNMT1) is reported as 316 to 1000 nM.

Molecule `CCc1c(C#N)c(SC(C(N)=O)c2ccccc2)nc(N2CCN(Cc3ccncc3)CC2)c1C#N` (centres unmarked) [Example 173, 2-((3,5-Dicyano-4-ethyl-6-(4-(pyridin-4-ylmethyl)piperazin-1-yl)pyridin-2-yl)thio)-2-phenylacetamide] has an EC50 [1] of 316 to 1000 nM and an IC50 (DNMT1) of 316 to 1000 nM.

For `CCc1c(C#N)c(C)nc(SCc2ccc(CNC(C)=O)cc2)c1C#N` [Example 284, N-(4-(((3,5-Dicyano-4-ethyl-6-methylpyridin-2-yl)thio)methyl)benzyl)acetamide], the EC50 [1] was > 31600 nM and the IC50 (DNMT1) was 316 to 1000 nM.

For `CCc1c(C#N)c(SCc2ccc(CNC(C)=O)cc2)nc(N(C)CCOC(=O)[C@@H](N)C(C)C)c1C#N` [Example 267], the EC50 [1] was 1000 to 31600 nM and the IC50 (DNMT1) was 1000 to 31600 nM.

For `CCc1c(C#N)c(SC(C(N)=O)c2ccccc2)nc(N2CCC[C@H](NCC(C)(C)C)C2)c1C#N` (stereo partly drawn) [Example 651, 2-((3,5-dicyano-4-ethyl-6-((S)-3-(neopentylamino)piperidin-1-yl)pyridin-2-yl)thio)-2-phenylacetamide], the EC50 [1] was < 316 nM and the “DNMT1 BioChemical (pIC50 category)” value (DNMT1) was “D (Category D: ≥6.5)”.

In the case of `CCc1c(C#N)c(SC(C(N)=O)c2ccccc2)nc(N2CCC(NCc3cccc(OC)n3)CC2)c1C#N` (centres unmarked) [Example 456, 2-((3,5-dicyano-4-ethyl-6-(4-(((6-methoxypyridin-2-yl)methyl)amino)piperidin-1-yl)pyridin-2-yl)thio)-2-phenylacetamide], the EC50 [1] is reported as < 316 nM and the “DNMT1 BioChemical (pIC50 category)” value (DNMT1) is reported as “D (Category D: ≥6.5)”.

With `CCc1c(C#N)c(SCc2ccc(NS(C)(=O)=O)cc2)nc(N(C)C)c1C#N` [Example 287, N-(4-(((3,5-Dicyano-6-(dimethylamino)-4-ethylpyridin-2-yl)thio)methyl)phenyl) methanesulfonamide] the EC50 [1] was 1000 to 31600 nM and the IC50 (DNMT1) was 316 to 1000 nM.

`CCc1c(C#N)c(SC(C(N)=O)c2ccccc2)nc(N2CCC(N3CC[C@@H](F)C3)CC2)c1C#N` (stereo partly drawn) [Example 460, 2-((3,5-dicyano-4-ethyl-6-(4-((R)-3-fluoropyrrolidin-1-yl)piperidin-1-yl)pyridin-2-yl)thio)-2-phenylacetamide] was tested, and the EC50 [1] was < 316 nM and the “DNMT1 BioChemical (pIC50 category)” value (DNMT1) was “D (Category D: ≥6.5)”.

In the case of `CCc1c(C#N)c(SC(C(N)=O)c2ccccc2)nc(N2CCC(NCCN)CC2)c1C#N` (centres unmarked) [Example 645, 2-((6-(4-((2-aminoethyl)amino)piperidin-1-yl)-3,5-dicyano-4-ethylpyridin-2-yl)thio)-2-phenylacetamide dihydrochloride], the EC50 [1] is reported as 316 to 1000 nM and the “DNMT1 BioChemical (pIC50 category)” value (DNMT1) is reported as “D (Category D: ≥6.5)”.

For `CCc1c(C#N)c(SC(C(N)=O)c2ccccc2)nc(N2CCC(N3CCC[C@H]3CO)CC2)c1C#N` (stereo partly drawn) [Example 441, 2-((3,5-dicyano-4-ethyl-6-(4-((S)-2-(hydroxymethyl)pyrrolidin-1-yl)piperidin-1-yl)pyridin-2-yl)thio)-2-phenylacetamide], the EC50 [1] was < 316 nM and the “DNMT1 BioChemical (pIC50 category)” value (DNMT1) was “D (Category D: ≥6.5)”.

For `CCc1c(C#N)c(SCc2ccc(C(=O)Nc3cn[nH]c3)cc2)nc(N2CCCN(C)CC2)c1C#N` [Example 543, 4-(((3,5-dicyano-4-ethyl-6-(4-methyl-1,4-diazepan-1-yl)pyridin-2-yl)thio)methyl)-N-(1H-pyrazol-4-yl)benzamide], the EC50 [1] was > 31600 nM and the “DNMT1 BioChemical (pIC50 category)” value (DNMT1) was “D (Category D: ≥6.5)”.

`CCc1c(C#N)c(SCc2ccc(CNC(=O)CN)cc2)nc(N(C)CCN(CC)CC)c1C#N` [Example 520, 2-amino-N-(4-(((3,5-dicyano-6-((2-(diethylamino)ethyl)(methyl)amino)-4-ethylpyridin-2-yl)thio)methyl)benzyl)acetamide] was tested, and the EC50 [1] was < 316 nM and the “DNMT1 BioChemical (pIC50 category)” value (DNMT1) was “D (Category D: ≥6.5)”.
